According to PubChem BioAssay (NCI):
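These data come from cells grown in 96-well plates and exposed to compound for 48 hours at five concentrations. The concentration for full growth arrest is given as TGI.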

Assays:
Assay in all cases: NCI-60 cell line screen, 48 h
[1] = tested on: SW-620 colon
[2] = tested on: RXF 393 renal
[3] = tested on: M14 melanoma
[4] = tested on: BT-549 breast
[5] = tested on: MCF7 breast
[6] = tested on: NCI-H460 lung
[7] = tested on: NCI-H522 lung
[8] = tested on: NCI-H23 lung
[9] = tested on: MDA-MB-231 breast
[10] = tested on: EKVX NSCLC
[11] = tested on: HCT-15 colon
[12] = tested on: OVCAR-3 ovarian
[13] = tested on: OVCAR-4 ovarian
[14] = tested on: MOLT-4 leukemia
[15] = tested on: MDA-N

SMILES	TGI [1]	TGI [2]	TGI [3]	TGI [4]	TGI [5]	TGI [6]	TGI [7]	TGI [8]	TGI [9]	TGI [10]	TGI [11]	TGI [12]	TGI [13]	TGI [14]	TGI [15]
OC1(c2ccccc2)CC2CCC(C1)N2CCCC(O)(c1ccccc1)c1ccccc1 (centres undefined)	22.4 µM	24.3 µM	30.8 µM	26.3 µM	33.3 µM	5.13 µM	27.9 µM	25.7 µM	43.9 µM	38.3 µM	27.3 µM	30 µM	> 100 µM	36.3 µM	–
O=C1NC(=O)C(C(=O)C(=O)Nc2cc(Cl)ccc2Cl)C(=O)N1	> 100 µM	> 100 µM	> 100 µM	–	–	> 100 µM	> 100 µM	> 100 µM	–	> 100 µM	> 100 µM	> 100 µM	> 100 µM	> 100 µM	–
CC(=O)Nc1ccc(-c2nnc(SCC(=O)Nc3cccc(C)c3)o2)cc1	25.4 µM	25.9 µM	25.6 µM	–	–	28.6 µM	16.7 µM	20.4 µM	–	–	21.6 µM	24.2 µM	29.8 µM	> 100 µM	–
O=C1CC(c2ccc(Cl)cc2)C2(C(=O)NC(=S)NC2=O)C(c2ccc(Cl)cc2)C1 (centres undefined)	44.7 µM	29.4 µM	44.7 µM	–	32.1 µM	30.5 µM	–	39 µM	46.8 µM	91.7 µM	52.8 µM	33.9 µM	37.9 µM	89.5 µM	34.1 µM
CC(C)OP(=O)(OC(C)C)C(=NCCO)NNc1ccc([N+](=O)[O-])cc1	> 100 µM	–	> 100 µM	–	–	> 100 µM	> 100 µM	> 100 µM	–	> 100 µM	> 100 µM	> 100 µM	> 100 µM	> 100 µM	–
Cc1ccc2nc(N)[nH]c(=O)c2c1Sc1ccncc1	> 100 µM	> 100 µM	> 100 µM	–	–	> 100 µM	> 100 µM	> 100 µM	–	> 100 µM	> 100 µM	> 100 µM	> 100 µM	> 100 µM	–
O=c1oc2cc(O)ccc2c2[nH]c3cc(O)ccc3c12	> 100 µM	47.5 µM	> 100 µM	–	–	96.4 µM	32.9 µM	51.5 µM	–	90.1 µM	81.8 µM	56.5 µM	99.6 µM	> 100 µM	–
Cc1nc2cn3c(c2c(=O)[nH]1)CCCCC3	> 100 µM	> 100 µM	> 100 µM	> 100 µM	> 100 µM	> 100 µM	–	> 100 µM	69.7 µM	> 100 µM	> 100 µM	–	> 100 µM	> 100 µM	–
C=CCn1c(-c2cc(C(C)(C)C)c(O)c(C(C)(C)C)c2)cs/c1=N\C(P(=O)(O)O)P(=O)(O)O	> 100 µM	–	> 100 µM	> 100 µM	> 100 µM	> 100 µM	–	> 100 µM	> 100 µM	> 100 µM	> 100 µM	> 100 µM	> 100 µM	> 100 µM	–
CC(NC(=O)Cc1ccc(OP(=O)(OCc2ccc([N+](=O)[O-])o2)N(C)CCCCCl)cc1)c1ccc(OCC2CCCCC2)c(C(N)=O)c1 (centres undefined)	10.2 µM	4.74 µM	4.64 µM	–	6.75 µM	13.1 µM	5.18 µM	5.12 µM	4.37 µM	–	6.44 µM	3.75 µM	6.31 µM	4.38 µM	3.94 µM
C[N+]1=C(c2cccnc2/C=N/O)OCC1(C)C	> 100 µM	> 100 µM	> 100 µM	–	–	> 100 µM	> 100 µM	> 100 µM	–	> 100 µM	> 100 µM	> 100 µM	> 100 µM	> 100 µM	–
Cn1c(N/N=C/c2ccccc2)nc(-c2ccc3c(c2)OCO3)c(C#N)c1=O	> 100 µM	> 100 µM	> 100 µM	–	> 100 µM	> 100 µM	> 100 µM	> 100 µM	> 100 µM	> 100 µM	> 100 µM	90.6 µM	> 100 µM	> 100 µM	> 100 µM
CC(=O)NNc1nc(C)c(C(=O)NNC(=O)C(=O)Nc2ccc(Cl)c([N+](=O)[O-])c2)s1	> 100 µM	–	> 100 µM	–	–	> 100 µM	79.5 µM	> 100 µM	–	> 100 µM	> 100 µM	80.8 µM	> 100 µM	54.6 µM	–
[N-]=[N+]=CC(=O)C1(C(=O)C=[N+]=[N-])CC1	> 100 µM	> 100 µM	> 100 µM	–	–	> 100 µM	> 100 µM	> 100 µM	–	> 100 µM	> 100 µM	> 100 µM	> 100 µM	> 100 µM	–
NCCOc1ccc(/C(=C(/Cl)c2ccccc2)c2ccccc2)cc1	16.1 µM	13.8 µM	5.29 µM	–	–	21.6 µM	26.4 µM	30.7 µM	–	30.1 µM	19.1 µM	26.2 µM	28.7 µM	14.7 µM	–
Cc1cc(C)cc(Nc2nnc3n2S(=O)(=O)c2cc(C)c(Cl)cc2S3)c1	21.1 µM	17.2 µM	33.4 µM	70.9 µM	36 µM	24.8 µM	22.6 µM	19.2 µM	33.2 µM	52.2 µM	28.3 µM	17.5 µM	> 100 µM	> 100 µM	–
CCOC(=O)/C=C/n1c2ccccc2c(=O)c2cc(OC)ccc21	–	> 100 µM	> 100 µM	–	–	> 100 µM	> 100 µM	> 100 µM	–	> 100 µM	> 100 µM	> 100 µM	> 100 µM	> 100 µM	–
Oc1ccc(-c2c3ccccc3c(-c3ccc(O)cc3)c3ccccc23)cc1	> 100 µM	> 100 µM	> 100 µM	–	–	> 100 µM	> 100 µM	> 100 µM	–	> 100 µM	> 100 µM	> 100 µM	> 100 µM	> 100 µM	–
CCCCn1c(-c2ccccc2)cs/c1=N\N=C1C=C(C(C)(C)C)C(=O)C(C(C)(C)C)=C1	> 100 µM	> 100 µM	> 100 µM	–	–	> 100 µM	–	> 100 µM	–	> 100 µM	> 100 µM	> 100 µM	> 100 µM	> 100 µM	–

SMILES	TGI [1]	TGI [2]	TGI [3]	TGI [4]	TGI [5]	TGI [6]	TGI [7]	TGI [8]	TGI [9]	TGI [10]	TGI [11]	TGI [12]	TGI [13]	TGI [14]	TGI [15]
Oc1cc(O)c2c(c1)O[C@H](c1ccc(O)c(O)c1)[C@@H](O)C2	> 100 µM	–	> 100 µM	–	> 100 µM	> 100 µM	> 100 µM	> 100 µM	> 100 µM	> 100 µM	> 100 µM	> 100 µM	> 100 µM	> 100 µM	> 100 µM
C/C(=N\Nc1ccccc1)c1sc(-c2nc(C)c(/C(C)=N/Nc3ccccc3)s2)nc1C	> 35.2 µM	> 87.9 µM	25 µM	–	–	> 100 µM	48.3 µM	> 100 µM	–	> 100 µM	> 20.2 µM	59.9 µM	> 100 µM	> 100 µM	–
CC1CC(=O)Nc2ccc(Cl)cc2N1C(=O)CN1CCC(CCCCN(C)C)CC1 (centres undefined)	> 100 µM	–	> 100 µM	–	–	> 100 µM	–	> 100 µM	–	–	> 100 µM	> 100 µM	> 100 µM	> 100 µM	–
Nc1cn(C2OC(CC(c3ccccc3)(c3ccccc3)c3ccccc3)C(O)C2O)c(=O)[nH]c1=O (centres undefined)	28 µM	21.4 µM	48.6 µM	–	–	39.5 µM	38.3 µM	65.8 µM	–	> 100 µM	33.3 µM	37.9 µM	–	63.4 µM	–
CCN(CC)CC1CCCCN1CC(=O)N1c2cc(Cl)ccc2NC(=O)CC1C (centres undefined)	> 100 µM	–	> 100 µM	–	–	> 100 µM	> 100 µM	> 100 µM	–	> 100 µM	–	> 100 µM	> 100 µM	> 100 µM	–
C/C(=C1/N=C(c2cc([N+](=O)[O-])ccc2Cl)N(c2ccc(Br)cc2)C1=O)c1ccc(N(CCC#N)CCC#N)cc1C	25.5 µM	> 100 µM	> 100 µM	–	–	> 100 µM	–	> 100 µM	–	> 100 µM	58.7 µM	99.7 µM	> 100 µM	> 100 µM	–
CCOC(=O)/C(Br)=C1\OC(=O)c2ccccc2-c2ccccc21	> 100 µM	–	> 100 µM	–	–	–	61.1 µM	> 100 µM	–	> 100 µM	> 100 µM	> 100 µM	–	65.5 µM	–
CCC(=O)OC1CCn2c1nc1c2C(=O)C(C)=C(NC(C)=O)C1=O (centres undefined)	2.93 µM	3.11 µM	3.32 µM	–	–	14.1 µM	2.94 µM	3.49 µM	–	3.53 µM	–	0.572 µM	1.67 µM	–	–
N#C/C(=C\c1ccc(O)c(O)c1)c1c(C#N)c(N)nn1-c1ccccc1	> 100 µM	–	31.9 µM	–	–	38.3 µM	13.2 µM	25.3 µM	–	69.7 µM	36.8 µM	6.63 µM	38.7 µM	–	–
CC(=O)c1ccc(N2C(=O)C3c4[nH]c5ccccc5c4C4CCC(C(C)(C)C)CC4C3C2=O)cc1 (centres undefined)	54.3 µM	32.7 µM	67.8 µM	–	–	–	61.9 µM	45.3 µM	–	94.1 µM	92.8 µM	–	94.8 µM	> 100 µM	–
COC1(OC)CC2C(=O)N(Cc3ccccc3)C1C(S(=O)(=O)c1ccccc1)C2C(C)S(=O)(=O)c1ccccc1 (centres undefined)	> 100 µM	> 100 µM	> 100 µM	–	–	> 100 µM	> 100 µM	> 100 µM	–	> 100 µM	> 100 µM	> 100 µM	> 100 µM	> 100 µM	–
CCOC(=O)NN(C(=O)OCC)c1ccc(N=Nc2ccc(OC)cc2)n1C	–	> 100 µM	50 µM	–	31.8 µM	–	60.4 µM	> 100 µM	65.5 µM	> 100 µM	39.1 µM	53.2 µM	> 100 µM	> 100 µM	40.7 µM
CC(=O)O[C@@H]1[C@H](OC2CCCCC2(c2ccccc2)c2ccccc2)O[N+]([O-])=CC12CCCCC2 (some centres undefined)	31.6 µM	32.6 µM	33.8 µM	–	33.9 µM	32.2 µM	35.2 µM	22.2 µM	30 µM	33.7 µM	30.7 µM	28.1 µM	–	> 100 µM	36.7 µM
COC(=O)C(C(=O)C(=O)Nc1ccc(C)cc1)c1nc2ccc([N+](=O)[O-])cc2[nH]c1=O (centres undefined)	> 100 µM	> 100 µM	> 100 µM	–	–	> 100 µM	> 100 µM	> 100 µM	–	> 100 µM	> 100 µM	> 100 µM	> 100 µM	> 100 µM	–
c1ccc2c(c1)nnn2CNc1ccc(N2CCCCC2)cc1	> 100 µM	> 100 µM	> 100 µM	–	–	> 100 µM	> 100 µM	> 100 µM	–	> 100 µM	> 100 µM	> 100 µM	> 100 µM	> 100 µM	–
O=C1c2ccccc2N=C(c2cc3c(cc2Cl)Sc2nccn2S3(=O)=O)OS(=O)(=O)N1c1ccccc1	> 100 µM	84.7 µM	47.5 µM	61.1 µM	81.5 µM	> 100 µM	25.5 µM	66.2 µM	56.2 µM	> 100 µM	50.8 µM	> 100 µM	> 100 µM	32.8 µM	–
O=C(Nc1cccc(C(F)(F)F)c1)C(=O)C(C(=O)c1ccc(Cl)c(Cl)c1)C1OC(=O)c2ccccc21 (centres undefined)	> 100 µM	41.7 µM	> 100 µM	–	–	> 100 µM	> 100 µM	> 100 µM	–	> 100 µM	> 100 µM	> 100 µM	> 100 µM	> 100 µM	–
CCOC(=O)Cc1c(C)c2ccc(OC(C)=O)c(OC(C)=O)c2oc1=O	> 100 µM	–	> 100 µM	–	77.1 µM	–	–	71.7 µM	> 100 µM	> 100 µM	> 100 µM	> 100 µM	64 µM	> 100 µM	> 100 µM
